In assay [1] the test system is soleus muscles strips. Particulars: synthetic subpeptides; data not shown.
The test system of assay [2] is isolated islets of Langerhans. As to the kind of experiment: Glucose-stimulated insulin production by isolated islets of Langerhans. The assay is classed as cell-based, rats. The protocol: The following experiments illustrate the fact that subpeptides of amylin can act to reduce the amount of insulin produced by isolated islets of Langerhans in response to a standard glucose challenge. […] All experiments were performed by known methods used in experimental practice. See, e.g., Lacey PE, and Kostianovsky M, Method for the isolation of intact islets of Langerhans from the rat pancreas. Diabetes 1967; 16:35-39.
Briefly, rats were killed, and islets of Langerhans were isolated from their pancreases. Experiments were performed either with freshly isolated islets or after overnight incubation of islets (23 h) in standard culture medium and conditions at 37°C. […]
Production of insulin is expressed as µU/islet/h. […] The integrity of the islet response was assessed by comparing the responses after stimulation of different aliquots of islets by two and ten mmol/L glucose, respectively, and the strength of the inhibitory response was judged against that induced by 1 µg/ml (650 nmol/L) somatostatin. […]
The results are shown in TABLE 5 below and all results are expressed as ± standard error of the mean (s.e.m.). The significance of differences between the means of groups is assessed by the t-test. […] In all other experimental conditions, the significance of the inhibitory effect is measured against the effect of 10 mmol/L glucose alone.

Where no end group is shown, it is not given here.

As to “Amylin 8-37 (ATQRLANFLVHSSNNFGAILSSTNVGSNTY; Islet amyloid polypeptide; UniProt P10997 41-70, looked up, fragment) [[5]]”, in assay [1], the “activity in inhibiting glycogen synthesis (reducing incorporation of radioactive glucose into glycogen)” value is “significant activity was present”.

As for “CGRP 27-37: subpeptide 27-37 of calcitonin gene related peptide, believed to affect the amylin receptor as an agonist (FVPTNVGSKAF; ends and bridges not checked; UniProt P06881 109-119, looked up, fragment)”, the “inhibition of insulin secretion compared with that seen with amylin 27-37” value in assay [2] (10 mmol/L glucose, somatostatin 1 ug/mL (650 nmol/L), varying concentrations of CGRP 27-37) is given as “no significant difference”. The “trend of inhibition relative to that caused by amylin 27-37” value in assay [2] (never reached significance) was “slightly greater”.

For the origin of these results see EP0348490B1, “TREATMENT OF TYPE 2 DIABETES MELLITUS” (AMYLIN PHARMACEUTICALS, INC., priority 1988, dated 1995).
